# Data: PMC2931818 (Anti-cancer drugs, 2010)
# Columns and labels:
# [1] = Edotecarin plasma pharmacokinetics in cancer patients after 1-h IV infusion; format: in vivo, human; conditions: for AUC (0-inf) / AUC (0–24): 6 mg/m^2 dose only; for AUC (0-inf) / AUC (0–24) / CL (total body-clearance) / T (terminal half-life) / Vss / Dose normalized AUC (0-inf) / Dose normalized AUC (0–24) / Dose normalized Cmax / half-life / Tmax: mean ± SD; for Dose normalized AUC (0-inf) / Dose normalized AUC (0–24) / Dose normalized Cmax: normalized to a 1 mg/m^2 dose; for half-life / Tmax: human, plasma, intravenous; for half-life: T (terminal half-life)
# [2] = system: advanced/metastatic solid tumors; experiment: Tumor response by Response Evaluation Criteria in Solid Tumors; format: in vivo, human; conditions: 14 treated patients, edotecarin/5-FU/LV
# [3] = system: patients with advanced/metastatic solid tumors
# topoisomerase I (Topo I) = conditions: cited from earlier work
# [4] = system: human CRC model (HCT-116); conditions: no added toxicity; cited from earlier work
# [5] = system: cells that have acquired resistance related to P-glycoprotein; conditions: cited from earlier work
# liver micrometastases = conditions: mice; cited from earlier work
# [6] = system: patients with solid tumors; conditions: single agent, cited from earlier work
# [7] = system: irinotecan-naïve patients with CRC; conditions: single agent 13 mg/m^2, cited from earlier work
# P450 = conditions: cited from earlier work
# [8] = system: HCT-116 colon, SCC-25 tongue, A427 NSCL and J82 human carcinoma cell lines; conditions: variety of cell lines (e.g. colon, non-small cell, lung, tongue and bladder); cited from earlier work
# [9] = 5-FU plasma concentration at steady state during 46-h infusion; format: in vivo, human; conditions: cycle 2; 2400 mg/m^2 46-h continuous infusion
# [10] = all 14 patients, all cycles, edotecarin with 5-FU/LV
compound,measurement,setting,value
"O=C1c2c(c3c4ccc(O)cc4n([C@@H]4O[C@H](CO)[C@@H](O)[C@H](O)[C@H]4O)c3c3[nH]c4cc(O)ccc4c23)C(=O)N1NC(CO)CO [Edotecarin, 6–N-(1-hydroxymethyla-2-hydroxyl) ethylamino-12,13-dihydro-13-(beta-D-glucopyranosyl)-5Hindolo(2,3-a)-pyrrolo(3,4-c)-carbazole-5,7(6H)-dione]",AUC (0-inf),[1]; cycle 1,124.5 ± 34.7 ng/h/mL
same,AUC (0–24),[1]; cycle 1,91.0 ± 21.6 ng/h/mL
same,CL (total body-clearance),[1]; cycle 1,51.3 ± 12.4 l/h/m^2
same,T (terminal half-life),[1]; cycle 1,25.3 ± 6.4 h
same,Vss,[1]; cycle 1,884.4 ± 296.0 l/m^2
same,Dose normalized AUC (0-inf),[1]; cycle 1,20.7 ± 5.4 ng/h/mL
same,Dose normalized AUC (0–24),[1]; cycle 1,15.3 ± 3.6 h/ng/mL
same,Dose normalized Cmax,[1]; cycle 1,13.2 ± 2.9 ng/mL
same,AUC (0-inf),[1]; cycle 2,91.7 ± 31.9 ng/h/mL
same,AUC (0–24),[1]; cycle 2,65.3 ± 22.9 ng/h/mL
same,CL (total body-clearance),[1]; cycle 2,73.3± 29.7 l/h/m^2
same,T (terminal half-life),[1]; cycle 2,20.3 ± 4.2 h
same,Vss,[1]; cycle 2,1408.7± 999.7 l/m^2
same,Dose normalized AUC (0-inf),[1]; cycle 2,15.4 ± 5.1 ng/h/mL
same,Dose normalized AUC (0–24),[1]; cycle 2,11.1 ± 3.7 h/ng/mL
same,Dose normalized Cmax,[1]; cycle 2,10.1 ± 4.4 ng/mL
same,half-life,[1]; cycle 1,~25 h
same,half-life,[1]; cycle 2,~20 h
same,Tmax,[1]; cycle 1,0.48 ± 0.22 h
same,Tmax,[1]; cycle 2,0.83 h
same,disposition after completion of the IV administration,[1]; very rapid initial decline then much slower reduction in plasma concentrations,bi-exponential disposition
same,patients with progressive disease as best overall response,[2],six patients
same,patients with stable disease as best overall response,[2],seven patients
same,patients with complete response as best overall response,"[2]; patient with HCC, confirmed by cycle 5",one patient
same,patients with DLT (grade 3 neutropenia not recovered to grade 1 by day 21),"[3]; 6 mg/m^2 edotecarin cohort without 5-FU bolus, expanded to five patients",one patient
same,patients with grade 4 neutropenia (DLT),"[3]; 8 mg/m^2 edotecarin cohort, no 5-FU bolus, two of the three patients",66%
same,deaths within 30 days of the last treatment dose,[3]; 14 patients,No patients died
same,patients discontinued from the study because of adverse events (neutropenia),"[3]; 14 patients, 90 cycles",four patients
same,patients with dose reductions because of AEs (neutropenia),"[3]; 14 patients, 90 cycles",three patients
same,patients with serious adverse events,"[3]; 14 patients, 90 cycles, two treatment-related, two unrelated",four patients
same,patients with fatigue (AE overall),[3]; [10],64%
same,patients with neutropenia (AE overall),[3]; [10],57%
same,patients with pyrexia (AE overall),[3]; [10],50%
same,patients with vomiting (AE overall),[3]; [10],42%
same,patients with fatigue during cycle 1,"[3]; all 14 patients, cycle 1",35%
same,patients with nausea during cycle 1,"[3]; all 14 patients, cycle 1",50%
same,patients with neutropenia during cycle 1,"[3]; all 14 patients, cycle 1",50%
same,"changes in clinical laboratory parameters, vital signs measurements, or ECG results",[3]; edotecarin with 5-FU/LV,No clinically important treatment-related changes
same,"gastrointestinal toxicities, especially diarrhea","[3]; edotecarin with 5-FU/LV, in general",minimal
same,maximum tolerated dose,"[3]; edotecarin with infusional 5-FU/LV every 2 weeks, only 6 and 8 mg/m^2 explored",no maximum tolerated dose was declared
same,induction of single-strand DNA cleavage,topoisomerase I (Topo I); at different DNA sequences,more effectively than NB-506 or camptothecin
same,stability of induced DNA-Topo I complexes,topoisomerase I (Topo I),more stable than those occurring after exposure to camptothecin or NB-506
same,efficacy in combination with 5-FU (concurrent treatment),[4],efficacy superior in combination than with the drugs as single agents
same,activity on P-glycoprotein-related resistant cells,[5],effective
same,inhibition of proliferation of liver micrometastases,liver micrometastases,highly effective
same,recommended dose for phase II studies,[6]; 3-week schedule with 1 week permitted for recovery,13 mg/m^2
same,recommended phase II dose,"[6]; once every 21 days, ref Hurwitz et al. [8]",13 mg/m^2
same,patients with stable disease (including four minor responses),"[7]; 24 patients, 13 patients",57%
same,patients with partial response,"[7]; 24 patients, three patients",13%
same,median time to tumor progression,[7],7.1 months
same,patients with grade 3/4 febrile neutropenia,[7]; one patient,4.2%
same,formation of active metabolites,P450,does not form any active metabolites
same,substrate for in vitro P450-mediated metabolism,P450,is not a substrate
same,effect of the combination of edotecarin with 5-FU,[8],additive effect
"O=c1[nH]cc(F)c(=O)[nH]1 [5-FU, 5-fluorouracil]",average concentration obtained at steady state,[9],455.9 ± 222.8 ng/mL
